Read-outs that look alike come from different tables or passages of the source.
Legend:
[1] = tested on: MPanc96 (Mut) pancreatic tumor cells; assay: CyQUANT proliferation assay; type: cell-based; set-up: key to IC50 proliferation MPanc96 (Mut): NE—Not efficacious; details: 72 h
Description: (§1) Madine Darby Canine Kidney epithelial cells (MDCK) stably co-expressing mGFP-tagged full length oncogenic mutant K-Ras (GFP—K-RASG12V) or mGFP-LactC2 (peptide probe for phosphatidylserine) and mCherry-tagged to the amino acids 179-189 of H-RasC181S, C184S (mCherry-CAAX, localizes primarily to endomembranes) were grown in DMEM-high glucose/sodium pyruvate/10% FBS. The medium was supplemented with 1× Penicillin/Streptomycin for fluorescence microscopy assays, to avoid any microbial contamination from the test compounds added. KLE and Hec50 cells were maintained in DMEM-F-12 medium supplemented with 10% FBS. Hec-1A and Hec-1B cells were grown in McCoy's 5a medium supplemented with 10% FBS. ESS-1 cells were grown in RPMI 1640 medium supplemented with 20% FBS. MPanc96 cells were grown in DMEM supplemented with 10% FBS, MiaPaCa-2 cells in DMEM supplemented with 10% FBS and 2.5% horse serum and all other cell lines were grown in RPMI 1640 supplemented with 10% FBS. All cancer cell media were supplemented with ×Penicillin/Streptomycin. All cell lines were grown at 37° C. with 5% CO2.
(§2) Cells were seeded in 96-well plates. After 24 h, fresh growth medium supplemented with 0.1% vehicle (DMSO), or various concentrations of drugs was added and cells were grown for 72 h. Cell numbers were quantified using the CyQUANT® Cell Proliferation Assay Kit (Molecular Probes, Life Technologies), according to the manufacturer's protocol. Fluorescence measurement was used as a measure of live cell number.

[2] = tested on: MiaPaCa-2 (Mut) pancreatic tumor cells; assay: CyQUANT proliferation assay; type: cell-based; set-up: key to IC50 proliferation MiaPaCa-2 (Mut): NE—Not efficacious; details: 72 h
Description: as §1, §2

[3] = tested on: MOH (Mut) pancreatic tumor cells; assay: CyQUANT proliferation assay; type: cell-based; set-up: key to IC50 proliferation MOH (Mut): NE—Not efficacious; details: 72 h
Description: as §1, §2

mGFP-K-RASG12V = mGFP-K-RASG12V (Homo sapiens (Human), UniProt P01116, G12V); assay: K-Ras mislocalization assay (confocal microscopy, Manders coefficient); type: cell-based; set-up: key to Emax: Manders coefficient: fraction of mCherry-CAAX co-localizing with GFP-K-Ras; details: MDCK cells; for IC50: 48 h treatment, read-out: IC50 (μM), KRASG12V mislocalization; for Emax: maximal effect, Manders coefficient; for Emax / EC50: 48 h; for EC50: batch 4 compounds, title calls it IC50, read-out: EC50
Summary of the method: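 MDCK cells stably co-expressing mGFP-K-RASG12V and mCherry-CAAX (endomembrane marker) treated with compound or 0.1% DMSO for 48 h, fixed in 4% paraformaldehyde, imaged by confocal microscopy. Mislocalization quantified as the fraction of mCherry-CAAX co-localizing with mGFP-K-RASG12V (Manders coefficient) after 8-bit thresholding.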

[4] = tested on: MDCK cells co-expressing GFP-K-RASG12V and mCherry-CAAX; assay: Cytotoxicity in mislocalization screen (death of all cells in well); details: drug caused death of all cells in well at 30 μM
[5] = tested on: MDCK cells co-expressing GFP-K-RASG12V and mCherry-CAAX
[6] = tested on: NCI H1975 (WT) lung tumor cells; assay: CyQUANT proliferation assay; type: cell-based; set-up: key to IC50 proliferation NCI H1975 (WT): NE—Not efficacious; details: 72 h
Description: as §1, §2

[7] = tested on: ESS-1 (WT) endometrial tumor cells; assay: CyQUANT proliferation assay; type: cell-based; set-up: key: NE—Not efficacious; details: 72 h
Description: as §1, §2

[8] = tested on: NCI H522 (WT) lung tumor cells; assay: CyQUANT proliferation assay; type: cell-based; set-up: key to IC50 proliferation NCI H522 (WT): NE—Not efficacious; details: 72 h
Description: as §1, §2

[9] = tested on: Ishikawa (WT) endometrial tumor cells; assay: CyQUANT proliferation assay; type: cell-based; set-up: key to IC50 proliferation Ishikawa (WT): NE—Not efficacious; details: 72 h
Description: as §1, §2

MiaPaCa-2 tumors = assay: In vivo tumor growth assay (xenograft); set-up: species or system nu/nu mice; details: MiaPaCa2 xenografts in nude mice
Description: In Vivo Tumor Growth Assay. All animal studies were performed under an Institutional Animal Care and Use Committee (IACUC) approved animal protocol (AWC-15-0101), in accordance with the National Institutes of Health Guide for the Care and Use of Laboratory Animals. Early passage MiaPaCa-2 cells were harvested, and 2×10^6 cells were implanted into the right flanks of female nu/nu mice. The animals were randomized into control and treated groups (10 mice per group). Tumor volume (V) was measured with an external caliper every 3-4 days and it was calculated as V=0.52 (length×width2). Compound treatment was initiated when the tumor sizes reached 100 mm3. Compounds (12.5 mg/kg) were injected daily intraperitoneally for 5 days, with 2 days of no treatment in between. All treatments were continued until any of the subcutaneous tumors reached 1500 mm3 in volume, when all the animals were sacrificed, and the tumors removed.
Early passage BxPC-3 or MIAPaCa-2 cells were harvested, and 2-3X106 cells were implanted into the right flanks of nu/nu mice. The animals were randomized into control and treated groups (10 mice per group). Tumor volume (V) was measured with an external caliper every 3-4 days and it was calculated as V=0.52 (length×width2). Drug treatment was initiated 4 days after tumor implantation. Drugs were injected daily intraperitoneally (at doses indicated) for 5 days, with 2 days of no treatment in between. All treatments were continued until any of the subcutaneous tumors reached 1500 mm3 in volume or for 6 weeks (whichever was first), when all the animals were sacrificed and the tumors removed.
Next the effect of the selected PMLIs on the growth of oncogenic KRAS expressing MiaPaCa-2 cells implanted subcutaneously into the flanks of nu/nu immunosuppressed mice was determined. […] The animals were randomized into control and PMLI-treated groups (10 mice per group). Treatment was initiated when the tumors reached a mean volume of 100 mm^3. PMLIs were tested at 12.5, 7.5, 5, 2.5 and 1 mg/kg doses, administered once daily intraperitoneally for 5 days, with 2 days of no treatment in between for the duration of the experiment. […] There was no observed toxicity detected in any of the compound-treated groups during the experiment and, accordingly, there was no significant difference in the body weight of the animals in the different groups.

[10] = tested on: KLE (WT) endometrial tumor cells; assay: CyQUANT proliferation assay; type: cell-based; set-up: key: NE—Not efficacious; details: 72 h
Description: as §1, §2

[11] = tested on: BxPC-3 (WT) pancreatic tumor cells; assay: CyQUANT proliferation assay; type: cell-based; set-up: key to IC50 proliferation BxPC-3 (WT): NE—Not efficacious; details: 72 h
Description: as §1, §2

Structure (SMILES)	IC50 (mGFP-K-RASG12V) [µM]	Emax (mGFP-K-RASG12V)	Cytotoxic at 30 μM [4]	other results
COc1ccc([C@@H](C)N(CC=C(c2ccccc2)c2ccccc2)C(=O)NC(C)(C)C)cc1 [NY0428, (R)-3-tert-butyl-1-(3,3-diphenylallyl)-1-(1-(4-methoxyphenyl)ethyl)urea]	0.29	0.891	No	IC50 proliferation MPanc96 (Mut) [1]: NE; IC50 proliferation MiaPaCa-2 (Mut) [2]: NE; IC50 proliferation MOH (Mut) [3]: NE
COc1ccc([C@@H](C)N(CC=C(c2ccccc2)c2ccccc2)CCN2CC2)cc1 [NY0438, (R)-N-(2-(aziridin-1-yl)ethyl)-N-(1-(4-methoxyphenyl)ethyl)-3,3-diphenylprop-2-en-1-amine]	5.1	0.754	–	Cytotoxic at 30 μM [5]: No
CN1CCN(CCN(CC=C(c2ccccc2)c2ccccc2)C2(c3ccccc3)CC2)CC1 [NY0443, N-(3,3-diphenylallyl)-N-(2-(4-methylpiperazin-1-yl)ethyl)-1-phenylcyclopropanamine]	0.91	–	Yes	IC50 proliferation NCI H1975 (WT) [6]: NE; IC50 proliferation ESS-1 (WT) [7]: NE; IC50 proliferation NCI H522 (WT) [8]: NE; IC50 proliferation Ishikawa (WT) [9]: NE
C(CN(CCN1CCCC1)C1(c2ccccc2)CC1)=C(c1ccccc1)c1ccccc1 [NY0444, N-(3,3-diphenylallyl)-1-phenyl-N-(2-(pyrrolidin-1-yl)ethyl)cyclopropanamine]	0.73	0.732	Yes	IC50 proliferation ESS-1 (WT) [7]: NE; IC50 proliferation Ishikawa (WT) [9]: NE
C[C@H](c1ccc(F)cc1)N(CC=C(c1ccccc1)c1ccccc1)CCN1CCCC1 [NY0506, (R)-N-(1-(4-fluorophenyl)ethyl)-3,3-diphenyl-N-(2-(pyrrolidin-1-yl)ethyl)prop-2-en-1-amine]	–	0.808	Yes	EC50 (mGFP-K-RASG12V): 0.528 µM; minimum effective dose on tumor growth relative to fendiline (MiaPaCa-2 tumors): more potent than fendiline
C[C@H](c1ccccc1)N(CC=C(c1ccccc1)c1ccccc1)CCN1CCN(C)CC1 [NY0513, (R)-N-(2-(4-methylpiperazin-1-yl)ethyl)-3,3-diphenyl-N-(1-phenylethyl)prop-2-en-1-amine]	0.6	0.786	Yes	IC50 proliferation KLE (WT) [10]: NE; EC50 (mGFP-K-RASG12V): 0.639 µM; Emax (mGFP-K-RASG12V; listed as 15d): 0.79 ± 0.01
C(CNC1(c2ccccc2)CC1)=C(c1ccccc1)c1ccccc1 [NY040402, N-(3,3-diphenylallyl)-1-phenylcyclopropanamine]	0.2	0.835	No	IC50 proliferation MPanc96 (Mut) [1]: NE; IC50 proliferation MiaPaCa-2 (Mut) [2]: NE; IC50 proliferation MOH (Mut) [3]: NE; IC50 proliferation BxPC-3 (WT) [11]: NE
COc1ccc(-c2cc(C(=O)N(CCN3CCCC3)[C@H](C)c3ccc(F)cc3)no2)cc1 [PW323, (R)-N-(1-(4-Fluorophenyl)ethyl)-5-(4-methoxyphenyl)-N-(2-(pyrrolidin-1-yl)ethyl)isoxazole-3-carboxamide]	0.05	0.852	Yes	minimum effective dose on tumor growth relative to fendiline (MiaPaCa-2 tumors): more potent than fendiline
COc1ccc(/C(=C\CN(CCN2CCCC2)[C@H](C)c2ccc(F)cc2)c2ccc(F)cc2)cc1 [PW454, (R,E)-3-(4-fluorophenyl)-N-(1-(4-fluorophenyl)ethyl)-3-(4-methoxyphenyl)-N-(2-(pyrrolidin-1-yl)ethyl)prop-2-en-1-amine]	0.319	0.771	Yes at 10 uM	–
C[C@H](c1ccc(F)cc1)N(C/C=C(/c1ccc(F)cc1)c1ccc(C(F)(F)F)cc1)CCN1CCCC1 [PW455, (R,E)-3-(4-fluorophenyl)-N-(1-(4-fluorophenyl)ethyl)-N-(2-(pyrrolidin-1-yl)ethyl)-3-(4-(trifluoromethyl)phenyl)prop-2-en-1-amine]	1.86	0.821	Yes at 10 uM	–
COc1ccc(/C(=C\CN(CCN2CCCC2)[C@H](C)c2ccc(F)cc2)c2ccccc2)cc1 [PW460, (R,Z)-N-(1-(4-fluorophenyl)ethyl)-3-(4-methoxyphenyl)-3-phenyl-N-(2-(pyrrolidin-1-yl)ethyl)prop-2-en-1-amine]	2.02	0.801	Yes at 10 uM	–
C[C@H](c1ccc(F)cc1)N(CC=C(c1ccccc1)c1ccccc1)CCNc1cc(-c2ccc(F)cc2)n[nH]1 [PW2100, (R)-N^1-(3,3-diphenylallyl)-N^2-(3-(4-fluorophenyl)-1H-pyrazol-5-yl)-N^1-(1-(4-fluorophenyl)ethyl)ethane-1,2-diamine]	–	0.414	No	–

From US12043602B2, “Fendiline derivatives” (The Board of Regents of the University of Texas System, priority 2019, dated 2024)
